Data on four compounds can be found in US20240282989A1, “PHENOTHIAZINE DERIVATIVES AND REDOX-FLOW BATTERIES” (University of Kentucky Research Foundation, priority 2023, published 2024).

What all share (type): physicochemical
Series [1] can be described thus: Cyclic voltammetry of monomer and dimer. Particulars: for 1st oxidation potential / ipa/ipc / peak separation: 1 mM in 0.1 M TEABF4/ACN; for redox event (number of electrons, reversibility) / oxidation potential: 10 mM solution; for redox event (number of electrons, reversibility): cyclic voltammetry; for ipa/ipc / peak separation: 1st oxidation; for oxidation potential: referenced to Fc/Fc+, glassy carbon working electrode. The procedure:
The electrochemical stability and reversibility of redox-events were determined by cyclic voltammetry experiments, which were carried out in a CH Instrument potentiostat with glassy carbon electrode as a working electrode, Pt-wire electrode as a counter electrode and a silver electrode as a reference electrode. […]

Series [2] is described as follows: Solubility / miscibility measurement (NMR method, internal standard). Particulars: for solubility: organic solvent or mixture, NMR method. The procedure:
The MEEPRT-TFSI monomer is a viscous liquid at room temperature, the miscibility was determined in acetonitrile and 0.1 M TEATFSI in acetonitrile. In both solvents, it is miscible when mixed with 1:10, 10:1, and 1:1 ratio by wt. of acetonitrile:redoxomers. Solubility of redoxomers were determined by NMR method using 1,4-bis(trifluoromethyl)benzene as an internal standard.

Series [3] is described as follows: Cross-over experiments in custom-built H-cell with FAPQ-375-PP membrane. The conditions noted are these: 0.1 M redoxomer in anhydrous acetonitrile; two layers FAPQ-375-PP membrane; CV of blank side up to 24 h. The method, then:
We compared cross-over fractions of our newly synthesized redoxomers with our previous redoxomers such as MEEPT and EPRT-TFSI using a custom-built H-cell. A stack of two layer of FAPQ-375-PP membrane pre-soaked in acetonitrile for 24 h was used as membrane between two compartments of H-cell. For each set of experiment, a 0.1 M solution of redoxomer in anhydrous acetonitrile on the left side and acetonitrile (blank solution) on the right side. The cross over fractions were determined by cyclic voltammetry of the solution from the blank side in 0 h, 2 h, 4 h, 8 h, 12 h, and 24 h in a argon-filled glovebox.

The structures appear in SMILES notation.

For the compound `CC(CN1c2ccccc2Sc2ccccc21)[N+](C)(C)CCOCCOCC[N+](C)(C)C(C)CN1c2ccccc2Sc2ccccc21` (stereo not drawn) [EEEPRT-TFSI2], in series [1], the 1st oxidation potential is reported as 0.54 V; the “redox event (number of electrons, reversibility)” value is “two-electron reversible redox event”; the ipa/ipc is 1.06; the peak separation is listed as 59 mV. Moreover, in series [1], the oxidation potential entry is “same potential”. In series [2] (in 0.1 M TEATFSI in acetonitrile), the solubility – broadly, how much of the substance goes into solution per volume – turned out to be 1200 mM. Further, the solubility in series [2] (in acetonitrile) came to 1600 mM. The same compound returned a cross over fraction in series [3] of 0.0037.

Regarding `COCCOCC[N+](C)(C)C(C)CN1c2ccccc2Sc2ccccc21` (stereo not drawn) [MEEPRT-TFSI], in series [1], the 1st oxidation potential was determined as 0.54 V; the “redox event (number of electrons, reversibility)” value was “single electron reversible redox reaction”; the ipa/ipc was 1.06; the peak separation stood at 59 mV. For the same compound, the oxidation potential in series [1] is given as 0.54 V. For the same compound, the miscibility entry in series [2] (in 0.1 M TEATFSI in acetonitrile, 1:10, 10:1 and 1:1 ratio by wt.) was “miscible”. In series [2] (in acetonitrile, 1:10, 10:1 and 1:1 ratio by wt. acetonitrile:redoxomers, room temperature), the miscibility result is on record as “miscible”. The same compound showed a cross over fraction in series [3] of 0.0346.

For the compound `COCCOCCN1c2ccccc2Sc2ccccc21` [MEEPT, reference compound], the cross over fraction in series [3] was found to be 0.0471.

Regarding `CC(C[N+]1c2ccccc2Sc2ccccc21)[N+](C)(C)CCOCCOCC[N+](C)(C)C(C)C[N+]1c2ccccc2Sc2ccccc21` (stereo not drawn) [dimer radical cation], in series [2] (in acetonitrile, 1:1, 10:1 and 1:10 by wt.), the “miscibility of radical cations” value was “completely miscible”.
